The results in this text go back to US8710064B2, “2-aryl-4-quinazolinones and their pharmaceutical compositions” (China Medical University, priority 2011, dated 2014).

One data set has as its system rat primary glia cells. Description: MTS cell viability assay, rat primary glia cells. Format: cell-based. Particulars: 0.00625-1 μM. The method, then:
(§1) The human glioma cell lines U87, U251, T98G, U373, and rat glioma cell line RT2 provided by Dr. Michael Hsiao (Genomics Research Center, Academia Sinica, Taiwan) were cultured in Dulbecco's Modified Eagle medium (DMEM) (Caisson) supplemented with 10% fetal bovine serum (FBS) (Sigma-Aldrich), 2 mM L-glutamine (Caisson), 100 U/ml penicillin, and 100 μg/ml streptomycin (Caisson). The rat glioma C6 cell line provided by Dr. Shun-Fen Tzeng (National Cheng Kung University, Taiwan) was cultured in DMEM/F12 (Caisson) supplemented with 10% fetal bovine serum, 2 mM L-glutamine, 100 U/ml penicillin, and 100 μg/ml streptomycin. […] Cell proliferation was determined by MTS (tetrazolium compound, 3-(4,5-dimethylthiazol-2-yl)-5-(3-carboxymethoxyphenyl)-2-(4-sulfophenyl)-2H-tetrazolium) assay (Promega). […] The absorbance of soluble formazan was measured at 490 nm with microplate reader (Molecular device). The cell viability was determined by the percentage of the absorption relative to untreated control. […] To investigate the influence of MJ-66 on normal glia such as human glia cell line SVGP12 and rat primary glia cells, cells were treated with different concentrations of MJ-66 in vitro (0.00625, 0.0125, 0.025, 0.05, 0.1 and 1 μM) for different time durations (0, 6, 12 and 24 hours) and the cell viability was assessed by MTS assay. […]
(Tetrazolium dyes change colour on reduction, which living cells bring about.)

The subject of another data set is U87 glioma cells. Description: immunofluorescent staining, confocal microscopy. Format: cell-based, human. The following applies: 60 nM, 24 hours. Here is the method: 2×10^4 cells were seeded on the PDL-coating 12 mm-glass coverslips in 24-well plate and allowed to attach for 24 hours at 37° C. Culture medium containing MJ-66 (IC50) or DMSO (0.006%) was added, and cells were incubated at 37° C. At indicated time points (0, 12 and 24 hr), cells were fixed in 4% paraformaldehyde (PFA) in PBS for 30 minutes. After permeabilized by 0.2% Triton X-100 in 0.1 M PBS for 10 minutes and 10% methanol containing 0.2% Triton X-100 in 0.1 M PBS for 5 minutes, cells were blocked in 3% bovine serum albumin (BSA, Sigma) for 1 hour. The cells were immunostained for mitotic spindle with mouse monoclonal alpha-tubulin (Sigma-Aldrich), and mitotic center with rabbit polyclonal gamma-tubulin (Genetex), and then stained with appropriated secondary antibodies conjugated with Texas Red or FITC for 1 hr. […] Fluorescence images were detected by confocal laser scanning microscope (FV1000, Olympus).
To observe the morphology of MJ-66-treated glioma cells, C6 or U87 glioma cells were treated with medium or 60 nM MJ-66 for 24 hours and stained with Hoechst 33342 and antibodies against alpha-tubulin conjugated with FITC or antibodies against gamma-tubulin conjugated with FITC in combination with antibodies against alpha-tubulin conjugated with Texas Red were detected by confocal laser scanning microscope. […]

Data set [1] relates to human glia cell line SVGP12. The data set is described as follows: MTS cell viability assay, normal glia cell line SVGP12. Format: cell-based. The following applies: 0.00625-1 μM. The method, then:
as §1

In a further data set the test system is C6 glioma cells. Description: trypan blue exclusion cell death assay, C6 glioma cells. Format: cell-based, rat. Particulars: 60 nM, at the 72nd hour, p<0.05 versus control. The method, then:
Cell viability was also determined by trypan-blue exclusion assay. Cells were seeded in 6-well plates (2×10^4/well) for trypan blue exclusion assay, and incubated for 24 hours at 37° C. Culture medium containing test compound or DMSO (0.006%) was added to each well, and cells were incubated at 37° C. At indicated time points (0, 24, 48, 72 and 96 hr), cells were suspended with 0.05% trypsin-EDTA, and stained with trypan-blue dye (0.4%) (Sigma). The cell viability was evaluated by the percentage of death relative to the total cell, and cell growth curve was determined by number of live cells relative to the total number of cells.
To investigate the glioma cell death induced by MJ-66, cell viability was assessed by trypan blue exclusion assay. C6 and U87 glioma cells treated with MJ-66 (30, 60, 90 nM) or DMSO (0.009%) for 0, 24, 48, 72 and 96 hours (hr) were observed under bright field microscope (FIG. 4A). The percentages of cell death and cell growth curve were determined by trypan blue assay followed by cell counting (mean±SEM, n=3). Relative to total cell number, trypan blue positive cells were defined as dead cells.

Regarding `O=c1[nH]c(-c2cccc3ccccc23)nc2ccc(N3CCCC3)cc12` [Compound 23, 6-(Pyrrolidin-1-yl)-2-(naphthalen-1-yl)quinazolin-4-one], the “cell viability of rat glia cells” value in the data set with rat primary glia cells is “inhibited”. For the same compound, in the data set with U87 glioma cells, the “nuclear morphology of U87 glioma cells” value is recorded as “abnormal nuclear phenotype”. Further, the “cell viability of SVGP12” value in data set [1] is listed as “inhibited”. The “percentage of dead cells, C6” value in the data set on C6 glioma cells is on record as “significantly induced”.
